{
  "source": "patent US8686224B2",
  "about": "“Plant defense signal peptides” (priority 2005, dated 2014)",
  "key": {"AtPEPR1 [1]": {"biological_target": "T1, AtPEPR1 (Arabidopsis thaliana, UniProt Q9SSL9)", "T1 construct": "Tobacco cells were transformed with a CaMV-35S-AtPEPR1 gene; expressed in transfected cells; host or cells: tobacco suspension-cultured cells (Agrobacterium-mediated, CaMV 35S promoter)", "T1 sequence (Q9SSL9 29-1123)": "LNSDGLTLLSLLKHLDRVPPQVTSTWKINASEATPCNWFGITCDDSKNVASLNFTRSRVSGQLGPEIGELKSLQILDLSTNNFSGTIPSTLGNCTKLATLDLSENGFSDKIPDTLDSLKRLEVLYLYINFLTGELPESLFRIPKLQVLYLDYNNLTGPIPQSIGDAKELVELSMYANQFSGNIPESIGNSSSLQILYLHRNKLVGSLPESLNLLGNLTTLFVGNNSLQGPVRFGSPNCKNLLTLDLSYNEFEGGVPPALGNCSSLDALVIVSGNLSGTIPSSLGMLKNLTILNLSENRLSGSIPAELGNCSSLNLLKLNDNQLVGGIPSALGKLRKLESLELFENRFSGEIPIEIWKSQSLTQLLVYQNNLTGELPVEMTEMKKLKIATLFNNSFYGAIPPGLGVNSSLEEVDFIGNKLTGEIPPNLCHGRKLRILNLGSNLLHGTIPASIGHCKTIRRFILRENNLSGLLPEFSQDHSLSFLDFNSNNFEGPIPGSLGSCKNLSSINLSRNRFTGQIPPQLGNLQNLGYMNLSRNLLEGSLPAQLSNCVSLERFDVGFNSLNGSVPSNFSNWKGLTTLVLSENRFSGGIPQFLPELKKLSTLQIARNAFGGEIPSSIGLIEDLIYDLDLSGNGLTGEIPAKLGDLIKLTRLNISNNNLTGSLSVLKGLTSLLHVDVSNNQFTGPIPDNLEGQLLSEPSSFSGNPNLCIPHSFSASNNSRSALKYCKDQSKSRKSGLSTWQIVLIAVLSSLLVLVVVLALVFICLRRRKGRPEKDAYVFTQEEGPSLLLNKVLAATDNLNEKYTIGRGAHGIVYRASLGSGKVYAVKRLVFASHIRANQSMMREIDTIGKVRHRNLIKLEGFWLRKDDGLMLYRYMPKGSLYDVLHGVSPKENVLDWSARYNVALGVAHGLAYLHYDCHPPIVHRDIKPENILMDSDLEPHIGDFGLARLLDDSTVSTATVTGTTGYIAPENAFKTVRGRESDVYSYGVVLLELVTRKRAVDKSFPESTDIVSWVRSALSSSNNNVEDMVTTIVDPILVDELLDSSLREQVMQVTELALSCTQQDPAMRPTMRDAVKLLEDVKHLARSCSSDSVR", "assay": "Photoaffinity labeling of transgenic tobacco cells expressing AtPEPR1", "assay_type": "binding", "details": "50 nM unlabeled competitor, 0.25 nM label", "description": "For final confirmation, a photoaffinity-labeling experiment was performed using the transgenic tobacco cells. The transgenic cells were incubated with 0.25 nM ^125I1-azido-Cys-AtPep1 (Yamaguchi et al., Proc. Natl. Acad. Sci. USA 103: 10104-10109, 2006) and irradiated with UV-B to cross-link the AtPep1-binding proteins. After separation of extracted proteins by SDS-PAGE, the labeled proteins were detected on X-ray film. […] Since no specific labeling was detected in wild type tobacco and GUS expressing cells, the proteins labeled specifically by ^125I1-azido-Cys-AtPep1 in AtPEPR1 and AtPEPR2 expressing cells were products from the AtPEPR1 and AtPEPR2 genes."}, "[2]": {"tested_on": "PDF1.2 and PR-1 gene expression", "assay": "Spraying of four-week-old soil-grown plants, qRT-PCR of PDF1.2 and PR-1", "assay_type": "in vivo, Arabidopsis thaliana", "text": "[…]1 and […]2 mutants are unable to respond to AtPEP1. To further examine the importance of […]1 and […]2 in AtPep1 signaling, the expression level of WRKY transcription factor genes, WRKY22, WRKY29, WRKY33. WRKY53 and WRKY55, were monitored by qRT-PCR after supplying AtPep1 to wild type Arabidopsis and T-DNA insertional mutants of […]1 and […]2. These WRKY genes were reported to be induced by the fungal PAMP, chitin (Wan et al., Plant Cell 20: 471-481, 2008), and the bacterial PAMPs, […] et al., Cell 125:749-760, 2006). […] In the double mutants, […] […] We also examined the effect of supplying AtPep1 to the double mutants on the expression of the antimicrobial protein genes, defensin (PDF1.2) and pathogenesis related protein (PR-1) […] peptides are known to induced these genes (Huffaker and Ryan, Proc. Natl. Acad. Sci. USA 104: 10732-10736, 2007). Since the expression levels of PDF1.2 and PR-1 gene in Arabidopsis seedlings grown in liquid medium were already high, the method of supplying AtPep1 was changed. Four-week-old Arabidopsis plants grown in soil were sprayed with 1 μM AtPep1 in 0.01% Silwet L-77, and subjected to qRT-PCR analysis after 6 hours."}, "AtPEPR1 [3]": {"biological_target": "T1, AtPEPR1", "assay": "Medium alkalinization of transgenic tobacco cells expressing AtPEPR1", "assay_type": "cell-based", "text": "Tobacco cells were transformed with a CaMV-35S-AtPEPR1 gene to determine whether the foreign receptor protein was targeted to the cell surface, where, in response to AtPep1, it would activate intracellular signaling to effect the alkalinization of the medium of the transgenic tobacco cells. Expression of the AtPEPR1 gene was confirmed by RT-PCR analysis of RNA from three independently transformed tobacco cell lines. […] AtPep2-7 was also supplied to the transgenic tobacco cells expressing AtPEPR1.\nTo clarify whether AtPEPR2 binds to AtPep1, the AtPEPR2 coding region was fused to the CaMV 35S promoter and introduced into tobacco suspension-cultured cells by Agrobacterium. Tobacco cells expressing AtPEPR1 and GUS genes were also created as positive and negative controls, respectively. […] These transgenic lines were analyzed for alkalinizing activity as previously described (Pearce et al., Proc. Natl. Acad. Sci. USA 98, 12843-12847, 2001).\nThe response to all AtPep peptides in transgenic tobacco cells expressing either AtPEPR1 or AtPEPR2 was analyzed by the medium alkalinization assay."}, "[4]": {"biological_target": "T2, AtPep1 receptor (At1g73080, AtPEPR1) (Arabidopsis thaliana, UniProt Q9SSL9)", "T2 sequence (Q9SSL9 29-1123)": "T1 sequence (Q9SSL9 29-1123)", "assay": "Binding assay of 125I1-Tyr-AtPep1 with Arabidopsis suspension cultured cells", "protocol": "Binding assays. […] The filtered cells were washed three times with 5 mL of cold MS medium containing 3% sucrose, suspended in 1 mL MS medium containing 3% sucrose in a glass test tube, and analyzed for total radioactivity in a gamma-ray counter (Isodata 2020; Isodata Inc., Palatine, Ill.)."}, "[5]": {"details": "sprayed 1 μM in 0.01% Silwet L-77, 6 hours, wild type"}, "[6]": {"details": "AtPEPR1 expressing tobacco cells"}},
  "note": "“Also recorded” adds a separate entry of the source.",
  "data": [
    {"substance": "H-ATKVKAKQRGKEKVSSGRPGQHN-OH [AtPep1]", "values": [
      {"measurement": "labeling of the 170 kDa protein by 125I1-azido-Cys-AtPep1 with competitor", "setting": "AtPEPR1 [1]", "result": "not in the cells incubated with 50 nM unlabeled AtPep1"},
      {"measurement": "induction of PDF1.2", "setting": "[2]; [5]", "result": 30, "unit": "fold"},
      {"measurement": "induction of PR-1", "setting": "[2]; [5]", "result": 60, "unit": "fold"},
      {"measurement": "induction of PDF1.2 and PR-1 in the double mutants", "setting": "[2]; sprayed 1 μM, 6 hours", "result": "not induced"},
      {"measurement": "EC50", "setting": "AtPEPR1 [3]", "result": "~0.25", "unit": "nM"},
      {"measurement": "alkalinization of the medium", "setting": "AtPEPR1 [3]; [6]", "result": "strong, reproducible alkalinization; also recorded: caused alkalinization of the media"},
      {"measurement": "maximal change", "setting": "AtPEPR1 [3]; [6]", "result": 1.2, "unit": "pH units"},
      {"measurement": "Kd", "setting": "[4]", "result": 0.25, "unit": "nM"}
    ]}
  ]
}
